# Data published in patent US20150246141A1, “DIAGNOSTIC AGENTS WITH ENHANCED SENSITIVITY/SPECIFICITY” (BEN-GURION UNIVERSITY OF THE NEGEV RESEARCH AND DEVELOPMENT …, priority 2012, published 2015).
# What was measured:
# [1] = test system: cancerous colorectal tissue; assay: In situ labeling of surgically excised human colorectal cancer tissue specimens; settings: PBS, 0.2 mg/ml; 20 minutes incubation, washed three times
# Experimental: Polymer solution was dropped onto fresh surgical tissue specimens that were received 15 minutes after surgical excision. After 20 minutes of incubation with the polymeric probe, tissues were washed three times with a large volume of PBS. Tissues were then imaged immediately using the Odyssey® Infrared Imaging System (Li-Cor Biosciences, Lincoln, Nebr., USA.) with excitation wavelength of 780 nm and emission wavelength of 800 nm.
# [2] = test system: LS-174T human colorectal adenocarcinoma; assay: Murine orthotopic colorectal tumor model LS-174T, intraluminal instillation, imaging of excised colon and organs; assay type: in vivo, female athymic nude mice; settings: polymer applied intraluminally
# Experimental: The murine orthotopic colorectal tumor model LS-174T human colorectal adenocarcinoma cells (3×10^7 cells) were injected (600 μL) into the descending colonic wall of 13 anesthetized, female athymic nude mice, after an over night fast. […] Histopathological examination was performed on paraffin fixed colonic tissue specimens, after an H&E stain and verified that the carcinoma infiltrated within the mucosa, submucosa, and muscular layer
# The mice were sacrificed 3 hrs post treatment, their colons exteriorized, separated, cut open, spread on a transparent film with the mucosal aspects upwards, and imaged by the Odyssey® Infrared Imaging System (Li-Cor Biosciences, Lincoln, Nebr., USA.) with excitation wavelength of 780 nm and emission wavelength of 800 nm.
# [3] = test system: LS174T tumors; assay: Intraluminal (intracolonic) administration to mice bearing rectal LS174T tumors, NIR imaging of excised colon; assay type: in vivo, female athymic nude mice
# Experimental: […] Then, the mice were sacrificed and the colons were removed. Each colon was spread on a clear film, and imaging was performed using the Odyssey® Infrared Imaging System (Li-Cor Biosciences, Lincoln, Nebr., USA.), with excitation wavelength of 780 nm and emission wavelength of 800 nm Results:
# [4] = test system: HT29 tumors; assay: Intraluminal administration to mouse HT-29 tumor models, NIR imaging; assay type: in vivo, female athymic nude mice
# Experimental: 20 min later the colon was washed extensively with PBS and then were allowed to recover for 3 h. Then, the mice were sacrificed and the colons were removed. Each colon was spread on a clear film, and imaging was performed using the Odyssey® Infrared Imaging System (Li-Cor Biosciences, Lincoln, Nebr., USA.), with excitation wavelength of 780 nm and emission wavelength of 800 nm Results:
# FIGS. 4C and 4D provide results of similarly treated animals, 2 hours post-administration.
# [5] = immediately post administration of 0.1 mg/ml (200 μg)
substance,measurement,setting,value
HPMA copolymer bearing IR783-S-Ph-COOH [P-(AP-IR783)],binding to near healthy tissue,[1],very low binding
same,staining at cancerous region in the tissue (polyp and tumor),[1],markedly intense staining
same,accumulation in cancerous tissue,[2],Selective accumulation
same,background staining in control mice without tumors,"[3]; 40 μg per mouse (0.2 mg/ml), images taken at 4 hours following washing",very little background staining
same,staining in samples taken from mice having tumors,"[3]; 40 μg per mouse (0.2 mg/ml), tumors verified by pathologic evaluation",clear staining was evident
same,tumor associated-vasculature staining,[3]; intraluminal application,staining was evident
same,accumulation in cancerous tissue,"[3]; polymer applied intraluminally, LS174T tumor model",Selective accumulation
same,staining of region 4 (no tumors macroscopically; tumors in the submucosa),[4]; [5],stained intensely
same,"staining of surface exposed regions (boxes 2, 3)",[4]; [5],stained intensely
same,accumulation in cancerous tissue,"[4]; polymer applied intraluminally, HT-29 tumor model",Selective accumulation
